From patent publication US20060264411A1, “Control of biofilm formation” (priority 2005, published 2006)

How the values were obtained:
[1] = system: E. coli laboratory strain JM109; assay: Biofilm formation inhibition, crystal violet, E. coli laboratory strain JM109; format: cell-based; settings: Escherichia coli, read-out: inhibited biofilm formation as compared to the controls
Method: Biofilm inhibition experiments were conducted using an assay adapted from the reported protocol described in Pratt and Kolter, 1998, Molecular Microbiology, 30: 285-293; Li et al., 2001, J. Bacteriol., 183: 897-908. E. coli clinical strain UTI89 was grown in LB in 96 well plates at room temperature for one or two days without shaking. E. coli laboratory strain JM109 was grown in LB plus 0.2% glucose in 96 well plates at room temperature for one day without shaking. To quantify the biofilm mass, the suspension culture was poured out and the biofilm was washed three times with water. The biofilm was stained with 0.1% crystal violet for 20 minutes. The plates were then washed three times with water. OD reading at 540 nm was measured to quantify the biofilm mass at the bottom of the wells. Then 95% ethanol was added to dissolve the dye at the bottom and on the wall and the OD reading at 540 nm was measured to quantify the total biofilm mass. To study the overall effect of the compounds (3.6 mg/mL in 100% ethanol as stock solution), it was added with the inoculation and a time course of biofilm mass was measured. Appropriate amounts of 100% ethanol were added to each sample to eliminate the effect of solvent. Each condition had 3-4 replicates on each plate and was performed over multiple days.

[2] = Bladder concentrations in rats after oral dose; settings: rat, in vivo, po, 50 mg/kg
Method: Pharmacokinetic studies of asiatic acid and madecassic acid in rats were performed separately. Asiatic acid and madecassic acid were evaluated at 50 mg/kg (oral). Two animals were assigned to each group. Prior to dosing, a baseline blood sample was taken from each animal. At time zero, asiatic acid and madecassic acid, a single bolus dose in 50% Labrasol (Gattefosse) was given to each animal. Bladders were analyzed at 24 hours. Concentrations of both asiatic acid and madecassic acid in the bladder were approximately 30 μg/g at 24 hours.

[3] = system: Clinical isolates of P. aeruginosa from cystic fibrosis patients; assay: Detachment of mature biofilms on peg lids, crystal violet; format: cell-based; settings: 5 ug/ml; about 40 hours; eighteen clinical isolates
Method: Clinical isolates of P. aeruginosa from cystic fibrosis patients were passed twice on tryptic soy agar with 5% sheep blood after retrieval from −80° C. and then grown overnight in CAMHB. After dilution of a culture to 0.5 McFarland in broth medium, 100 μl was transferred in triplicate to wells of a flat-bottom 96-well microtiter plate. Bacterial biofilms were formed by immersing the pegs of a modified polystyrene microtiter lid into this biofilm growth plate, followed by incubation at 37° C. for 20 hours with no movement.
Peg lids were rinsed three times in sterile water, placed onto flat-bottom microtiter plates containing biofilm inhibitors at 5 ug/ml in 100 μl of CAMHB per well and incubated for approximately 40 hours at 37° C.
Pegs were rinsed, placed in a 0.1% (wt/vol) crystal violet solution for 15 min, rinsed again, and dried for several hours. To solubilize adsorbed crystal violet, pegs were incubated in 95% ethanol (150 μl per well of a flat-bottom microtiter plate) for 15 min. The absorbance was read at 590 nm on a plate reader. The wells containing asiatic acid were compared to negative controls. Negative controls were prepared as stated above but without asiatic acid.

bacterial invasion = assay: Bacterial invasion statement of Example 9; settings: within 15 minutes of administration
cysB gene = settings: examples of U.S. patent application Ser. No. 11/085,279; cited from earlier work
E. coli UTI89[pCOMGFP] = assay: Biofilm pods / intracellular bacterial communities (IBC) in mouse bladders, confocal microscopy; format: in vivo, C3H/HeN mice
Method: The experiment was performed using the procedures described in Justice, S. et al., Differentiation and development pathways of uropathogenic Escherichia coli in urinary tract pathogenesis.PNAS, 2004, 101(5), p. 1333-1338. Briefly, E. coli UTI89[pCOMGFP] was prepared after retrieval from frozen stocks by inoculating in LB medium statically for approximately 20 hours. Cells were harvested and suspended in 1 ml of PBS. Cells were diluted to achieve approximately a 10^8 CFU or 10^7 CFU input into C3H/HeN mice (2 mice per group).
Mice were deprived of water for approximately two hours. In experiment 1, all mice were anesthetized with 0.15 cc ketamine cocktail. In experiment 2, all mice were anesthetized with isofluorane. In experiment 1, urine was dispelled from the bladders and approximately 40 μg/ml of test compound or an appropriate amount of ethanol as control was introduced into the bladders via catheterization of the urethra using a tubing coated tuberculin syringe. 30 minutes was allowed to elapse. In experiment 2, bladders were not pre-incubated with test compounds. Bladders were then expelled and an inoculum of 10^8 CFU (Experiment 1) or 10^7 CFU (Experiment 2) of E. coli containing 40 μg/ml of test compound or equivalent amount of ethanol as controls were introduced into the bladders as indicated above.
In experiment 1 five hours elapsed and in experiment 2 six hours elapsed, and then mice were anesthetized and sacrificed. The bladders were removed, bisected, stretched, and fixed in 3% paraformaldehyde for 1 hour at room temperature. Bladders were then permeabilized in 0.01% Triton/PBS for 10 minutes and counter stained with TOPRO3 (Molecular Probes) for 10 minutes for visualization by confocal microscopy. Bladders were mounted on Prolong antifade (Molecular Probes).

## C[C@H]1[C@H](C)CC[C@]2(C(=O)O)CC[C@]3(C)C(=CC[C@@H]4[C@@]5(C)C[C@@H](O)[C@H](O)[C@@](C)(CO)[C@@H]5CC[C@]43C)[C@H]12 [Asiatic acid, asiatic acid]
[1]; JM 109, 5 ug/ml
  inhibition at 5 µg/mL: ~70%
[1]; JM 109, 10 ug/ml
  inhibition at 10 µg/mL: ~80%
[2]
  concentration at 24 h: ~30000 ng/g
[3]
  average detachment of mature biofilms compared to negative controls: approximately 50%
Bacterial invasion
  bacterial invasion (in words): significantly reduced bacterial invasion
cysB gene
  expression of a cysB gene in E. coli: modulate the expression of a cysB gene
E. coli UTI89[pCOMGFP]; experiment 1: 40 μg/ml intravesical, 30 min pre-incubation, 10^8 CFU, five hours
  reduction in biofilm pods or intracellular bacterial communities (IBC) in the bladders of mice as compared to the controls: 77%
E. coli UTI89[pCOMGFP]; experiment 2: 40 μg/ml with inoculum, no pre-incubation, 10^7 CFU, six hours
  reduction in large biofilm pods or large IBC in the bladders of mice as compared to the controls: ~60%
